In article PMC11940194, “Synthesis, Antiproliferative Activity, and ADME Profiling of Novel Racemic and Optically Pure Aryl-Substituted Purines and Purine Bioisosteres” (Biomolecules, 2025):
Like-named read-outs stand apart in the source and are kept apart here.

Assays:
[1] = tested on: normal skin fibroblasts (HFF-1); parameters: method as in PMID 29271659; settings: toxicity to normal cells; read-out: IC50 normal cells of analog without linker; cited from earlier work
[2] = Hydrolytic stability in aqueous buffer (UV/Vis); format: physicochemical; settings: phosphate buffer/DMSO 99:1, pH 7.4, 1 × 10⁻⁴ mol dm⁻³, UV/Vis spectra over 24 h
From the text: Solvents and chemicals, including starting purines and purine bioisosters 1–5, as well as para-substituted 2-phenyloxiranes 11–15 and phenacyl bromide 21–25, were purchased from Sigma-Aldrich (St. Louis, MO, USA), Alfa Aesar (Haverhill, MA, USA), and Fisher Scientific International (Pittsburgh, PA, USA). The progress of all reactions was monitored by thin layer chromatography on pre-coated Merck (Darmstadt, Germany) silica gel plates 60F254. The synthesized compounds were purified via column chromatography using Fluka (Buchs, Switzerland) silica gel (0.063−0.2 mm) and the appropriate solvent. All NMR spectra were recorded using a Bruker 300, 400, and 600 MHz NMR spectrometer (Bruker Biospin, Rheinstetten, Germany) in deuterated DMSO solutions, with TMS as the internal standard. The melting points of all newly synthesized compounds were determined using a Koffler (Reichert, Vienna) hot stage microscope. The ^1H (δ/ppm) and ^13C NMR (δ/ppm) spectra of compounds 26a,b–49a,b can be found in the Supporting Information (Figures S1–S48). The purity of all newly synthesized compounds was determined by elemental analysis and the elemental analysis results are within 0.5% of the theoretical values. The UV/Vis absorption spectra of compounds 40a, 45a, and 49b were measured at a concentration of 1 × 10⁻⁴ mol dm⁻³ in phosphate buffer and DMSO (99:1, v/v) at pH 7.4 using a Varian Cary 50 spectrophotometer in double-beam mode at 25 °C.
Selected 6-chloropurine (40a), 4-chloropyrrolo[2,3-d]pyrimidine (45a), and 4-chloroimidazo[4,5-c]pyridine (49b) with significant antiproliferative activity were examined for hydrolytic stability in an aqueous buffer solution.
2. UV/Vis absorption spectra of selected compounds
Figure S49. UV/Vis absorption spectra of compounds 40a (a), 45a (b), and 49b (c) recorded in phosphate buffer with 1% DMSO (99:1, v/v) at pH 7.4 (c = 1 × 10⁻⁴ mol dm⁻³). Spectra were measured immediately after sample preparation and after 24 hours to evaluate spectral stability over time.
(1 picture or pasted object on this page, not shown here)

[3] = tested on: normal skin fibroblasts (HFF-1); experiment: Cytotoxicity MTT assay, normal skin fibroblasts; format: cell-based, human; settings: Homo sapiens, HFF-1, 72 h, 72 h incubation, mean ± SD
Summary of the method: (§1)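 Human cancer lines and HFF-1 fibroblasts, cultured at 37 °C under 5% CO2 in serum-supplemented medium, were treated for 72 h over a 0.01–100 µM range. MTT gave growth rate, and 5-Fluorouracil served as reference.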

[4] = tested on: breast adenocarcinoma (MCF7) cells; experiment: Antiproliferative MTT assay, MCF-7; format: cell-based, human; settings: Homo sapiens, MCF7; 72 h incubation, MTT; mean ± SD
Summary of the method: as §1

[5] = tested on: hepatocellular carcinoma (HepG2) cells; experiment: Antiproliferative MTT assay, HepG2; format: cell-based, human; settings: SI = [IC50 HFF]/[IC50 HepG2]
Summary of the method: as §1

[6] = tested on: colorectal carcinoma (HT-29) cells; experiment: Antiproliferative MTT assay, HT-29; format: cell-based, human
Summary of the method: as §1

[7] = tested on: MDCKII-MDR1 cells (P-glycoprotein); experiment: MDCKII-MDR1 permeability assay; format: in vitro ADME, canine cells with over-expressed human MDR1 gene; settings: permeability class
Protocol: (§2) MDCKII-hMDR1 cells were obtained from Solvo Biotechnology, Hungary. DMEM, fetal bovine serum, Glutamax-100, Antibiotic/Antimycotic, DMSO, Dulbecco’s phosphate-buffered saline, and MEM Non-essential amino acids were purchased from Sigma (St. Louis, MO, USA). Bi-directional permeability and P-glycoprotein substrate assessments were carried out in Madin-Darby canine epithelial cells with the over-expressed human MDR1 gene (MDCKII-MDR1), coding for P-glycoprotein. Experimental procedures, as well as cell culture conditions, were the same as previously described. Briefly, compounds (10 µM, 1% DMSO v/v) in duplicate were incubated at 37 °C for 60 min with cell monolayer on 24-well Millicell inserts (Millipore, Burlington, MA, USA) with and without the P-glycoprotein inhibitor Elacridar (2 µM, International Laboratory, San Francisco, CA, USA). The inhibition of P-glycoprotein was verified by amprenavir (Moravek Biochemicals Inc, Brea, CA, USA) and monolayer integrity using Lucifer yellow (Sigma, St. Louis, MO, USA). LC-MS/MS measured compound concentrations and Lucifer yellow was measured on an Infinite F500 (Tecan, Männedorf, CH, Switzerland) using excitation of 485 nm and emission of 530 nm.
(§3) All samples were quantified using tandem mass spectrometry coupled to liquid chromatography. Samples were analyzed on a Sciex API4000 Triple Quadrupole Mass Spectrometer (Sciex, Division of MDS Inc., Toronto, Canada) coupled to a Shimadzu Nexera X2 UHPLC frontend (Kyoto, Japan). Samples were injected onto a UHPLC column (HALO2 C18, 2.1 × 20 mm, 2 µm or Luna Omega 1.6 µm Polar C18 100A, 30 × 2.1 mm) and eluted with a gradient at 50 °C. The mobile phase was composed of acetonitrile/water mixture (9/1, with 0.1% formic acid) and 0.1% formic acid in deionized water. The flow rate was 0.7 mL/min under gradient conditions, leading to a total run time of 1.5–2 min. A positive ion mode with turbo spray, an ion source temperature of 550 °C, and a dwell time of 150 ms were utilized for mass spectrometric detection. Quantitation was performed using multiple reaction monitoring (MRM) at the specific transitions for each compound.

[8] = tested on: P-glycoprotein (human MDR1); experiment: MDCKII-MDR1 permeability assay; format: in vitro ADME, canine cells with over-expressed human MDR1 gene; settings: dog, MDCK-MDR1
Protocol: as §2, §3

[9] = tested on: MCF-7, CFPAC-1, HT-29, HepG2 tumor cell lines and HFF-1 fibroblasts; experiment: Antiproliferative activity, whole cell line panel; format: cell-based, human; settings: tested cell lines
Protocol: The human ATCC tumor cell lines breast adenocarcinoma (MCF7), colorectal carcinoma (HT-29), pancreatic ductal adenocarcinoma (CFPAC-1), hepatocellular carcinoma (HepG2), and normal skin fibroblasts (HFF) derived from ATCC (American Type Culture Collection) were cultured in Dulbecco’s Modified Eagle Medium (DMEM) or Minimum Essential Medium (MEM) supplemented with 10% fetal bovine serum (FBS), 2 mM L-glutamine, 100 U/mL penicillin, and 100 µg/mL streptomycin (Lonza, Basel, Switzerland) in a humidified atmosphere with 5% CO2 at 37 °C. For the experiment, carcinoma cell lines and normal human cell lines were seeded in 96-well microtiter plates at a density of 3000 cells per well and 5000 cells per well, respectively, depending on the doubling time of the specific cell line. The test substances were then added at fivefold, tenfold dilutions (0.01 to 100 µM), freshly prepared in the growth medium on the day of testing, and incubated for a further 72 h. After 72 h of incubation, the growth rate of the cells was determined using the MTT assay according to the manufacturer’s guidelines. […] The IC50 values were calculated from the dose–response curves using linear regression analysis. The experiment was performed in tetraplicates in two individual experiments.
Newly synthesized compounds were evaluated for their cytotoxic activity in vitro against four human cancer cell lines, including human breast adenocarcinoma (MCF-7), ductal pancreatic adenocarcinoma (CFPAC-1), colorectal carcinoma (HT-29), and hepatocellular carcinoma (HepG2), as well as on non-cancerous skin fibroblasts (HFF-1), to check for non-specific toxicity. Furthermore, 5-Fluorouracil (5-FU) was used as a reference drug. The results are expressed as 50% inhibitory concentration (IC50) values and are listed in Table 2, Table 3, Table 4 and Table 5.

| SMILES | IC50 [1] | hydrolytic stability [2] | IC50 [3] | IC50 [4] | SI (HepG2) [5] | IC50 ([6]; Homo sapiens, HT-29, 72 h, 72 h incubation, MTT, mean ± SD) | SI (HT-29) ([6]; SI = [IC50 HFF]/[IC50 HT-29]) | Permeability [7] | Papp A→B at 60 min, 10 µM ([8]; 10 µM, 60 min, 37 °C) | Papp B→A at 60 min, 10 µM ([8]; 10 µM, 60 min, 37 °C) | efflux ratio at 60 min, 10 µM ([8]; <2 no efflux, >2 active efflux) | antiproliferative activity (in words) [9] |
| --- | --- | --- | --- | --- | --- | --- | --- | --- | --- | --- | --- | --- |
| FC(F)(F)c1ccc(-n2cc(Cn3cnc4c(Cl)ncnc43)nn2)cc1 | 750 nM |  |  |  |  |  |  |  |  |  |  |  |
| OCC(c1ccc(C(F)(F)F)cc1)n1cc(Cn2cnc3c(Cl)ncnc32)nn1 (stereo not drawn) [Compound 40a, 6-Chloro-9-((1-(2-hydroxy-1-(4-(trifluoromethyl)phenyl)ethyl)-1H-1,2,3-triazol-4-yl)methyl)-9H-purine] |  | hydrolytically stable | 18 ± 0.6 µM | 19 ± 4.3 µM | 28.1 | 690 ± 10 nM | 26.1 | MODERATE | 2.1 ×10⁻⁶ cm/s | 60.6 ×10⁻⁶ cm/s | 29.5 | submicromolar antiproliferative activity |
